{"source": "ChEMBL document CHEMBL1201862", "about": "“PubChem BioAssay data set” (2004)", "key": {"[1]": {"assay": "THP-1 cell cytotoxicity, dose response, cytotoxicity control for Vif-APOBEC3G degradation inhibitor project, THP-1 cells (AID 1117359)", "assay_type": "functional", "settings": "Human immunodeficiency virus 1, THP-1"}, "[2]": {"assay": "cytotoxicity toward NIH3T3 fibroblasts, dose response, counter-screen, cell-based, ATP luminescence, mouse fibroblasts (AID 2010);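 also: cells exposed to compound for about 90 hours before reading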", "assay_type": "functional"}, "[3]": {"assay": "HEp-2 cell cytotoxicity, dose response, cytotoxicity control for RSV inhibitor project, HTS (AID 2410)", "assay_type": "functional", "settings": "human respiratory syncytial virus"}, "[4]": {"system": "Vero", "assay": "Vero cell cytotoxicity, cytotoxicity control for flavivirus capping enzyme inhibitors (AID 588742)", "assay_type": "functional", "settings": "Chlorocebus sabaeus"}, "[5]": {"target": "Eukaryotic translation initiation factor 4E (Mus musculus, UniProt P63073)", "sequence (P63073 whole entry)": "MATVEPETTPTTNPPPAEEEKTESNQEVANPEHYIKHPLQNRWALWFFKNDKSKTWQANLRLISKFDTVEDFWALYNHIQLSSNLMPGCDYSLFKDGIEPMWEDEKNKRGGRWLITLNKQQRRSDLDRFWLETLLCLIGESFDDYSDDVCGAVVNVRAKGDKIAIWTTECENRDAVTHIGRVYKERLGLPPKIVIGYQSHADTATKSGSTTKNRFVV", "assay": "eIF4E–eIF4G protein interaction inhibitors, dose response, biochemical, TR-FRET (AID 855);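 also: potency for disrupting eIF4E binding to eIF4GI seen as loss of FRET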", "assay_type": "functional"}, "[6]": {"target": "T1, Hexokinase HKDC1 (Homo sapiens, UniProt Q2TB90)", "T1 sequence (Q2TB90 whole entry)": "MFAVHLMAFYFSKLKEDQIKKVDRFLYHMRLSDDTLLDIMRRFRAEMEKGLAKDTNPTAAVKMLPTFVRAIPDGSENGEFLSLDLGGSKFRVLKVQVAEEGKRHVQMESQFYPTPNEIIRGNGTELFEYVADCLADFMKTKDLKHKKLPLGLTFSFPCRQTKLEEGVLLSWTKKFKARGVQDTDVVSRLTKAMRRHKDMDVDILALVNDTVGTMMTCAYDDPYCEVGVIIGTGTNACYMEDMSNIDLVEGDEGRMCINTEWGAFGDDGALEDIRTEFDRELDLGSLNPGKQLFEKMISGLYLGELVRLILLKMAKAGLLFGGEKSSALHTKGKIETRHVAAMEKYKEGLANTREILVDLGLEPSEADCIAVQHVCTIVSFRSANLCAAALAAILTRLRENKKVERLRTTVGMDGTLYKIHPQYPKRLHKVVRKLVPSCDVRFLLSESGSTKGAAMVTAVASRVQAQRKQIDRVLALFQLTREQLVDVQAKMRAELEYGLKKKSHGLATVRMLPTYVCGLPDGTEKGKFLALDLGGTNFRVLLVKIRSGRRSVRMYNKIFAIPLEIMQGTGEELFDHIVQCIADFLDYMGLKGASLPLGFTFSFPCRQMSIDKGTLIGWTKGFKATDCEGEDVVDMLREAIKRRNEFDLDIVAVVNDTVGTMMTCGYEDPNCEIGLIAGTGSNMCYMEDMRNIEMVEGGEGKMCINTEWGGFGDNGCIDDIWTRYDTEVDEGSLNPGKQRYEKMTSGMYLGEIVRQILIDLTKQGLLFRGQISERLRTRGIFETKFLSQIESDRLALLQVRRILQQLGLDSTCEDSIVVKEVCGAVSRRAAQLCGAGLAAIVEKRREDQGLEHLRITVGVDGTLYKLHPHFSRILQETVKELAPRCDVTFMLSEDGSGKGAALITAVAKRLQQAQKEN", "assay": "SAR analysis of small molecule inhibitors of hexokinase domain containing I (HKDC1). [Related pubchem assays (depositor defined):AID493160, AID493190]", "assay_type": "functional"}, "[7]": {"target": "T2, Caspase-6 (Homo sapiens, UniProt P55212)", "T2 sequence (P55212 whole entry)": "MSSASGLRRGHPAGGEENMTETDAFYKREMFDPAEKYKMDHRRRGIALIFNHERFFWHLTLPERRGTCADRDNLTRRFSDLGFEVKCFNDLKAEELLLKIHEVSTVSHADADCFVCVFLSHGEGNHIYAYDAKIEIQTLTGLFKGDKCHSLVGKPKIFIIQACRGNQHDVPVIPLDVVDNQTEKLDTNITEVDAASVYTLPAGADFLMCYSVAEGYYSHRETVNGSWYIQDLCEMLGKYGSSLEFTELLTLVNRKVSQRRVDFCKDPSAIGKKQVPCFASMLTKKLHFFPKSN", "assay": "human caspase-6 inhibitors, dose response, biochemical, VEID-R110 fluorescence, cherry-pick (AID 720632)"}, "[8]": {"system": "Streptococcus sp. 'group A'", "assay": "growth inhibition of control SK(-) GAS strain, dose response, counter-screen for streptokinase expression inhibitor project, luminescence, kanamycin, BacTiterGlo, confirmation (AID 1900)", "assay_type": "functional, organism-based"}, "[9]": {"system": "Streptococcus", "assay": "Group A Streptococcus viability loss, dose response, counter-screen for streptokinase expression inhibitor project, luminescence, BacTiterGlo (AID 1915);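 also: potency for reduction of bacterial viability or growth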", "assay_type": "functional, organism-based"}, "[10]": {"target": "T3, C-C chemokine receptor type 6 (Homo sapiens, UniProt P51684)", "T3 sequence (P51684 whole entry)": "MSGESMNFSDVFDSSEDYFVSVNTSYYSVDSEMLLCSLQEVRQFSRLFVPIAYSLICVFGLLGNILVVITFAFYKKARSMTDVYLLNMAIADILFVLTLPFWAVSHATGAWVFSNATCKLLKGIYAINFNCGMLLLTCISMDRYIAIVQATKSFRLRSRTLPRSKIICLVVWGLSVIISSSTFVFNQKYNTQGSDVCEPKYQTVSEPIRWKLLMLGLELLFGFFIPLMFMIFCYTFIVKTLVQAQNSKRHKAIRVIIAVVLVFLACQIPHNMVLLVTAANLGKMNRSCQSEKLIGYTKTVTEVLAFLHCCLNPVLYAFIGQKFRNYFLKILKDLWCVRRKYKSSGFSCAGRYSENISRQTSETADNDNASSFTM", "assay": "CCR6 receptor antagonists, dose response, cell-based, luminescent beta-arrestin readout (AID 504728)", "assay_type": "functional"}, "[11]": {"target": "Keap1/Nrf2 (Homo sapiens, UniProt Q14145)", "sequence (Q16236 whole entry)": "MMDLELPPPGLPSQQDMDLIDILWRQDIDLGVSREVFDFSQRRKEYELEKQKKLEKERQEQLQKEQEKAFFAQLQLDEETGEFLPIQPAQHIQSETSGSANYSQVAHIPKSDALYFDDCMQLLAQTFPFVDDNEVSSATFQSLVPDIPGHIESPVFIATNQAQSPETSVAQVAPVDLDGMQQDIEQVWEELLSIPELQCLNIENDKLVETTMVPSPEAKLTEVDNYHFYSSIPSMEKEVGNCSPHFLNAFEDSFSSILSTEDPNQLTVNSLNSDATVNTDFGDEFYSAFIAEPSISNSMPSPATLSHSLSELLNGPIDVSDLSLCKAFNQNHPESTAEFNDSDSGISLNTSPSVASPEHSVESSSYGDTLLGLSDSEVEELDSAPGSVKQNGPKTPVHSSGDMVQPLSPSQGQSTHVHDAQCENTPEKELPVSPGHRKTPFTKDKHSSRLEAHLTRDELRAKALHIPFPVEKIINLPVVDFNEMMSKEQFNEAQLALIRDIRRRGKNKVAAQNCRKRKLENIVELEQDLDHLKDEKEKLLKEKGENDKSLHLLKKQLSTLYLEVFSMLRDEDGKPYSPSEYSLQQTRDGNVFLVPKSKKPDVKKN", "sequence (Q14145 whole entry)": "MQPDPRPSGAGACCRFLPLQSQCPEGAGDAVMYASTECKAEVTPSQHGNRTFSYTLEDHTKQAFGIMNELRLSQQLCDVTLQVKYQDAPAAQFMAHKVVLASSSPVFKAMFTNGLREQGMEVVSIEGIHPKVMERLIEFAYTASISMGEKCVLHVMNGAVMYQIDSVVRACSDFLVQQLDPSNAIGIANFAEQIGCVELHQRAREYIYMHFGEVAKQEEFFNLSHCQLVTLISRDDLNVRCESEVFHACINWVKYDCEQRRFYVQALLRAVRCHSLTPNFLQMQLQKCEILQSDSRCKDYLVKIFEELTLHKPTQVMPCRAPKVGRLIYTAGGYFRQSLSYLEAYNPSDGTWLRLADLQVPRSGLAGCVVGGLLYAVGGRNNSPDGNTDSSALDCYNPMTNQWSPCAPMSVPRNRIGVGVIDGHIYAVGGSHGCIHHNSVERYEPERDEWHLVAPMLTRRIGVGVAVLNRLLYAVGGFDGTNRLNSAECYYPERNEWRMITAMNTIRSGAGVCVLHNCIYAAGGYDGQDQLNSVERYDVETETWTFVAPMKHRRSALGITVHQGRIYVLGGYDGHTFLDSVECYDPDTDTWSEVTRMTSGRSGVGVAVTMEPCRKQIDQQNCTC", "assay": "Keap1-Nrf2 protein-protein interaction inhibitors, dose response, biochemical, fluorescence polarization, cherry-picked samples (AID 588683)"}}, "note": "Activity calls are given as the source filed them.", "data": [{"smiles": "NC(=O)C1CCN(C2=C(Cl)C(=O)c3ccccc3C2=O)CC1", "values": [{"measurement": "CC50", "setting": "[1]", "value": "9.71 µM (active)"}, {"measurement": "EC50", "setting": "[2]", "value": "3.29 µM (active)"}, {"measurement": "CC50", "setting": "[3]", "value": "7.88 µM (active)"}, {"measurement": "CC50", "setting": "[4]", "value": "22.3 µM (active)"}]}, {"smiles": "O=c1c2ccccc2nc(/C=C/c2cccnc2)n1Cc1ccccc1", "values": [{"measurement": "IC50", "setting": "[5]", "value": "5.77 µM (active)"}, {"measurement": "IC50", "setting": "[6]", "value": "> 80 µM (inactive)"}, {"measurement": "AC50", "setting": "[7]", "value": "11.8 µM (active)"}]}, {"smiles": "O=C(O)c1ccc(N/N=C/c2ccc(OC(=O)c3ccccc3Cl)cc2)cc1", "values": [{"measurement": "EC50", "setting": "[8]", "value": "2.91 µM (active)"}, {"measurement": "EC50", "setting": "[9]", "value": "131 µM (active)"}]}, {"smiles": "COC(=O)c1ccccc1NC1=C/C(=N\\S(=O)(=O)c2ccc(C(=O)O)cc2)c2ccccc2C1=O", "values": [{"measurement": "IC50", "setting": "[10]", "value": "> 66.6 µM (inactive)"}, {"measurement": "AC50", "setting": "[11]", "value": "> 52 µM (inactive)"}]}]}
